# Measured values reported in patent publication US11207325B2, “Triazolopyrimidine compounds and uses thereof” (Novartis AG, priority 2014, dated 2021).
# Key:
# [1] = system: H3K27 methylation in G401 cell; assay: ELISA (H3K27 methylation) assay; format: cell-based; settings: Homo sapiens, G-401; ELISA Qualified assay (H3K27 methylation); read-out: (c) IC50 (μM), ELISA Qualified
# Excerpt: ELISA (H3K27 Methylation) Assay
# [2] = system: B cell lymphoma cell KARPAS422; assay: Analysis of cell proliferation; format: cell-based; settings: Homo sapiens, KARPAS-422, 336 h; B cell lymphoma cell KARPAS422 after 14 days of treatment; read-out: antiproliferative activities (IC50 values)
# Protocol: Analysis of Cell Proliferation
# B cell lymphoma cell KARPAS422 was cultured using standard cell culture conditions in RPMI-1640 (Invitrogen, cat #11875) supplemented with 15% FBS (Invitrogen, cat #10099-141) in humidified incubator at 37° C., 5% CO2. To assess the effect of PRC2 inhibition on cell proliferation, exponentially growing cells were seeded at a density of 1×10^5 cells/mL in 12-well plate (Corning, cat #CLS3513). After cell seeding, a compound of the present disclosure was added to the cell media (in concentrations ranging from 0 to 100 μM, 3× dilution series). Viable cell numbers were determined every 3-4 days for up to 14 days using Vi-CELL (Beckman Coulter). On days of cell counting, fresh growth media and compound were replenished and cells split back to a density of 1×10^5 cells/mL. Total cell number is expressed as split-adjusted viable cells per mL. The dose response curves and IC50 values were generated using Prism.
IC50 [1],IC50 [2],SMILES
0.0029 µM,0.8 nM,"COc1cc(C)c(-c2cnc(NCc3c(F)ccc4c3CCO4)n3cnnc23)cn1 [Example 5, N-((5-fluoro-2,3-dihydrobenzofuran-4-yl)methyl)-8-(6-methoxy-4-methylpyridin-3-yl)-[1,2,4]triazolo[4,3-c]pyrimidin-5-amine]"
0.0036 µM,1 nM,"Cc1ncccc1-c1cnc(NCc2c(F)ccc3occc23)n2cnnc12 [Example 207, N-((5-fluorobenzofuran-4-yl)methyl)-8-(2-methylpyridin-3-yl)-[1,2,4]triazolo[4,3-c]pyrimidin-5-amine]"
0.0021 µM,0.3 nM,"Cc1nn(C(C)C)cc1-c1cnc(NCc2c(F)ccc3c2CCO3)n2cnnc12 [Example 4, N-((5-Fluoro-2,3-dihydrobenzofuran-4-yl)methyl)-8-(1-isopropyl-3-methyl-1H-pyrazol-4-yl)-[1,2,4]triazolo[4,3-c]pyrimidin-5-amine]"
–,3 nM,"Cc1ncccc1-c1cnc(NCc2c(F)ccc3c2CCO3)n2cnnc12 [Example 2, N-((5-fluoro-2,3-dihydrobenzofuran-4-yl)methyl)-8-(2-methylpyridin-3-yl)-[1,2,4]triazolo[4,3-c]pyrimidin-5-amine]"
0.0029 µM,0.6 nM,"Cc1nc(C2CC2)ncc1-c1cnc(NCc2c(F)ccc3c2CCO3)n2cnnc12 [Example 8, 8-(2-cyclopropyl-4-methylpyrimidin-5-yl)-N-((5-fluoro-2,3-dihydrobenzofuran-4-yl)methyl)-[1,2,4]triazolo[4,3-c]pyrimidin-5-amine]"
0.001 µM,17.4 nM,"[O-][n+]1cccc(-c2cnc(NCc3c(F)ccc4c3CCO4)n3cnnc23)c1 [Example 10, 3-(5-(((5-fluoro-2,3-dihydrobenzofuran-4-yl)methyl)amino)-[1,2,4]triazolo[4,3-c]pyrimidin-8-yl)pyridine 1-oxide]"
0.0034 µM,0.7 nM,"Cc1ncc(-c2cnc(NCc3c(F)ccc4c3CCO4)n3cnnc23)c(C)n1 [Example 3, 8-(2,4-Dimethylpyrimidin-5-yl)-N-((5-fluoro-2,3-dihydrobenzofuran-4-yl)methyl)-[1,2,4]triazolo[4,3-c]pyrimidin-5-amine]"
0.0009 µM,0.4 nM,"Cc1cc(-c2cnc(NCc3c(F)ccc4c3CCO4)n3cnnc23)n(C)n1 [Example 1, 8-(1,3-dimethyl-1H-pyrazol-5-yl)-N-((5-fluoro-2,3-dihydrobenzofuran-4-yl)methyl)-[1,2,4]triazolo[4,3-c]pyrimidin-5-amine]"
0.0035 µM,0.6 nM,"Cc1nc(OC(C)C)ncc1-c1cnc(NCc2c(F)ccc3c2CCO3)n2cnnc12 [Example 9, N-((5-fluoro-2,3-dihydrobenzofuran-4-yl)methyl)-8-(2-isopropoxy-4-methylpyrimidin-5-yl)-[1,2,4]triazolo[4,3-c]pyrimidin-5-amine]"
0.0038 µM,0.2 nM,"Cc1nc(C2CC2)ccc1-c1cnc(NCc2c(F)ccc3c2CCO3)n2cnnc12 [Example 6, 8-(6-Cyclopropyl-2-methylpyridin-3-yl)-N-((5-fluoro-2,3-dihydrobenzofuran-4-yl)methyl)-[1,2,4]triazolo[4,3-c]pyrimidin-5-amine]"
0.0052 µM,3 nM,"OCc1ncccc1-c1cnc(NCc2c(F)ccc3c2CCO3)n2cnnc12 [Example 7, (3-(5-(((5-fluoro-2,3-dihydrobenzofuran-4-yl)methyl)amino)-[1,2,4]triazolo[4,3-c]pyrimidin-8-yl)pyridin-2-yl)methanol]"
0.118 µM,–,"CN1CCN(c2ccc(-c3cnc(NCc4cccc5occc45)n4cnnc34)cc2)CC1 [Example 209, N-(benzofuran-4-ylmethyl)-8-(4-(4-methylpiperazin-1-yl)phenyl)-[1,2,4]triazolo[4,3-c]pyrimidin-5-amine]"
0.0019 µM,–,"O=C(c1ccc(-c2cnc(NCc3c(F)ccc4c3CCO4)n3cnnc23)cn1)N1CCCC1 [Example 129, (5-(5-(((5-fluoro-2,3-dihydrobenzofuran-4-yl)methyl)amino)-[1,2,4]triazolo[4,3-c]pyrimidin-8-yl)pyridin-2-yl)(pyrrolidin-l-yl)methanone]"
0.0054 µM,–,"FCc1ncccc1-c1cnc(NCc2c(F)ccc3c2CCO3)n2cnnc12 [Example 193, N-((5-fluoro-2,3-dihydrobenzofuran-4-yl)methyl)-8-(2-(fluoromethyl)pyridin-3-yl)-[1,2,4]triazolo[4,3-c]pyrimidin-5-amine]"
0.0225 µM,–,"Fc1ccc2c(c1CNc1ncc(-c3ccc(N4CCSCC4)nc3)c3nncn13)CCO2 [Example 91, N-((5-fluoro-2,3-dihydrobenzofuran-4-yl)methyl)-8-(6-thiomorpholinopyridin-3-yl)-[1,2,4]triazolo[4,3-c]pyrimidin-5-amine]"
0.11 µM,–,"c1cc(CNc2ncc(-c3ccc(C4CC4)nc3)c3nncn23)c2c(c1)OCC2 [Example 65, 8-(6-cyclopropylpyridin-3-yl)-N-((2,3-dihydrobenzofuran-4-yl)methyl)-[1,2,4]triazolo[4,3-c]pyrimidin-5-amine]"
0.086 µM,–,"Cc1noc(C)c1-c1cnc(NCc2cccc3c2CCO3)n2cnnc12 [Example 59, N-((2,3-dihydrobenzofuran-4-yl)methyl)-8-(3,5-dimethylisoxazol-4-yl)-[1,2,4]triazolo[4,3-c]pyrimidin-5-amine]"
0.078 µM,–,"COc1ccc(-c2cnc(NCc3c(F)ccc4c3CCO4)n3cnnc23)c(C)n1 [Example 155, N-((5-fluoro-2,3-dihydrobenzofuran-4-yl)methyl)-8-(6-methoxy-2-methylpyridin-3-yl)-[1,2,4]triazolo[4,3-c]pyrimidin-5-amine]"
0.0013 µM,–,"Cc1cc(C(=O)N2CCCC2)ncc1-c1cnc(NCc2c(F)ccc3c2CCO3)n2cnnc12 [Example 130, (5-(5-(((5-fluoro-2,3-dihydrobenzofuran-4-yl)methyl)amino)-[1,2,4]triazolo[4,3-c]pyrimidin-8-yl)-4-methylpyridin-2-yl)(pyrrolidin-l-yl)methanone]"
0.0333 µM,–,"Fc1ccncc1-c1cnc(NCc2cccc3c2CCO3)n2cnnc12 [Example 85, N-((2,3-dihydrobenzofuran-4-yl)methyl)-8-(4-fluoropyridin-3-yl)-[1,2,4]triazolo[4,3-c]pyrimidin-5-amine]"
